In PMC8305873, “Design and heterologous expression of a novel dimeric LL37 variant in Pichia pastoris” (Microbial Cell Factories, 2021):
Converted amounts (≈) assume the structure as drawn. Read-outs that look alike come from different tables or passages of the source. Where a SMILES comes first, the peptide text is derived from it.

What was measured:
E. coli ATCC 078 = assay type: cell-based, Escherichia coli; settings: ATCC 078
Description: (§1) All experiments were conducted at least three different times.

E. coli ATCC 25922 [1] = assay type: cell-based, Escherichia coli; settings: ATCC 25922
Description: as §1

E. coli UB 1005 = assay type: cell-based, Escherichia coli
Description: as §1

[2] = test system: S. Typhimurium ATCC 14028; assay type: cell-based, Salmonella Typhimurium; settings: ATCC 14028
Description: as §1

S. Typhimurium C 7731 = assay type: cell-based, Salmonella Typhimurium; settings: C 7731
Description: as §1

P. aeruginosa ATCC 27853 = assay type: cell-based, Pseudomonas aeruginosa; settings: ATCC 27853
Description: as §1

S. aureus ATCC 25923 = assay type: cell-based, Staphylococcus aureus; settings: ATCC 25923
Description: as §1

S. aureus ATCC 29213 = assay type: cell-based, Staphylococcus aureus; settings: ATCC 29213
Description: as §1

[3] = test system: S. epidermidis ATCC 12228; assay type: cell-based, Staphylococcus epidermidis; settings: ATCC 12228
Description: as §1

S. faecalis ATCC 29212 = assay type: cell-based, Streptococcus faecalis; settings: ATCC 29212
Description: as §1

human red blood cells = assay: Hemolytic activity assay; assay type: cell-based; settings: for MHC (minimum hemolysis concentration): concentration of peptide that causes 20% hemolysis, human red blood cells in 10 mM PBS pH 7.4, 37 °C 1 h, OD570
bacteria = settings: when no antimicrobial activity is detected at 32 µM, 64 µM is used
Description: The minimum inhibitory concentration (MIC) is a vital indicator for evaluating the antimicrobial activity of AMPs. The determination method refers to the improved method of Dong et al.. The strains to be tested were inoculated in Mueller Hinton broth (MHB) medium and cultured at 200 rpm and 37 °C until the logarithmic growth phase, and then the number of colonies was adjusted to approximately 10^5 CFU/mL. The 95 µL of bovine serum albumin (BSA) diluent (0.01% acetic acid and 0.2% BSA) and 5 µL of peptide (1.28 mM) were added to the first row of the 96-well plate, and 50 µL of BSA diluent was added to the other columns. After mixing in the first row, 50 µL of the mixture was aspirated and added to the second column and so on to the 11th row. After being cultured at 37 °C for 18–24 h, the minimum peptide concentration required to inhibit bacterial growth was the MIC value. All experiments were conducted at least three different times.
The safety of peptides is usually assessed by hemolytic activity. The collected blood of type B from healthy donor was centrifuged at 1000×g for 5 min to collect red blood cells. The red blood cells were then washed and resuspended in 10 mM PBS (pH 7.4). Fifty microliters of diluted red blood cells and an equal volume of peptide solution (2–128 µM) were incubated in a 96-well plate at 37 °C for 1 h. The red blood cell suspension treated with 0.1% Triton X-100 was used as a positive control (100% hemolysis), and untreated blood cell suspension was used as a negative control. The 96-well plate was centrifuged at 1000×g for 5 min at 4 °C, and then the supernatant was transferred to a new 96-well plate. The absorbance at OD570 was measured with a microplate reader.

E. coli ATCC 25922 [4] = assay type: cell-based, Escherichia coli; settings: ATCC 25922; remark: listed apart in the source
Description: as §1
The salt ions were added to the BSA solution and configured into different final concentrations of salt ions (150 mM NaCl, 4.5 mM KCl, 6 µM NH4Cl, 8 µM ZnCl2, 1 mM MgCl2, 2 mM CaCl2, and 4 µM FeCl3) solutions. The method discribed as above was referred to determine the MIC value of rLG against E. coli ATCC 25922 in the presence of different concentrations of salt ions.

E. coli ATCC 25922 [5] = assay type: cell-based, Escherichia coli; settings: ATCC 25922; remark: listed apart in the source

SMILES	MIC (E. coli ATCC 078)	MIC (E. coli ATCC 25922 [1])	MIC (E. coli UB 1005; UB 1005)	MIC [2]	MIC (S. Typhimurium C 7731)	MIC (P. aeruginosa ATCC 27853)	MIC (S. aureus ATCC 25923)	MIC (S. aureus ATCC 29213)	MIC [3]	MIC (S. faecalis ATCC 29212)	MHC (minimum hemolysis concentration) (human red blood cells)	GM (geometric mean of the MIC value of the peptide against bacteria) (bacteria)	also measured
CC[C@H](C)[C@H](NC(=O)[C@H](CCCNC(=N)N)NC(=O)[C@H](CCC(N)=O)NC(=O)[C@@H](NC(=O)[C@@H](NC(=O)[C@H](CCCNC(=N)N)NC(=O)[C@H](CCCCN)NC(=O)[C@H](Cc1ccccc1)NC(=O)[C@H](CCCNC(=N)N)NC(=O)[C@H](CC(C)C)NC(=O)[C@H](Cc1ccccc1)NC(=O)[C@H](CCCNC(=N)N)NC(=O)[C@H](CCCCN)NC(=O)[C@@H](NC(=O)[C@H](CCCNC(=N)N)NC(=O)[C@H](CCC(N)=O)NC(=O)[C@@H](NC(=O)[C@@H](NC(=O)[C@H](CCCNC(=N)N)NC(=O)[C@H](CCCCN)NC(=O)[C@@H](N)Cc1ccccc1)[C@@H](C)CC)C(C)C)[C@@H](C)CC)[C@@H](C)CC)C(C)C)C(=O)N[C@@H](CCCCN)C(=O)N[C@@H](CCCNC(=N)N)C(=O)N[C@@H](Cc1ccccc1)C(=O)N[C@@H](CC(C)C)C(=O)N[C@@H](CCCNC(=N)N)C(=O)O [(FR)2] (H-FKRIVQRIKRFLRFKRIVQRIKRFLR-OH)	1.11 ± 0.31 µM (≈ 3.89 µg/mL)	1.22 ± 0.41 µM (≈ 4.27 µg/mL)	1.00 ± 0.00 µM (≈ 3.5 µg/mL)	2.22 ± 0.63 µM (≈ 7.78 µg/mL)	1.11 ± 0.31 µM (≈ 3.89 µg/mL)	2.22 ± 0.63 µM (≈ 7.78 µg/mL)	3.78 ± 0.63 µM (≈ 13.2 µg/mL)	2.00 ± 0.00 µM (≈ 7 µg/mL)	2.00 ± 0.00 µM (≈ 7 µg/mL)	2.00 ± 0.00 µM (≈ 7 µg/mL)	16 µM	1.62 µM	hemolysis (blood cells destroyed) (human red blood cells; at the highest peptide concentration (128 μM), human red blood cells, 37 °C 1 h, 0.1% Triton X-100 = 100%): approximately 43%
CC[C@H](C)[C@H](NC(=O)[C@H](CCCNC(=N)N)NC(=O)[C@H](CCC(N)=O)NC(=O)[C@@H](NC(=O)[C@@H](NC(=O)[C@H](CCCNC(=N)N)NC(=O)[C@H](CCCCN)NC(=O)[C@@H](N)Cc1ccccc1)[C@@H](C)CC)C(C)C)C(=O)N[C@@H](CCCCN)C(=O)N[C@@H](CC(=O)O)C(=O)N[C@@H](Cc1ccccc1)C(=O)N[C@@H](CC(C)C)C(=O)N[C@@H](CCCNC(=N)N)C(=O)O [FD] (H-FKRIVQRIKDFLR-OH)	16.00 ± 0.00 µM (≈ 27.5 µg/mL)	32.00 ± 0.00 µM (≈ 55 µg/mL)	16.00 ± 0.00 µM (≈ 27.5 µg/mL)	32.00 ± 0.00 µM (≈ 55 µg/mL)	32.00 ± 0.00 µM (≈ 55 µg/mL)	> 32 µM	> 32 µM	> 32 µM	> 32 µM	> 32 µM	–	–	–
CC[C@H](C)[C@H](NC(=O)[C@H](CCCNC(=N)N)NC(=O)[C@H](CCC(N)=O)NC(=O)[C@@H](NC(=O)[C@@H](NC(=O)[C@H](CCCNC(=N)N)NC(=O)[C@H](CCCCN)NC(=O)[C@@H](N)Cc1ccccc1)[C@@H](C)CC)C(C)C)C(=O)N[C@@H](CCCCN)C(=O)N[C@@H](CCCNC(=N)N)C(=O)N[C@@H](Cc1ccccc1)C(=O)N[C@@H](CC(C)C)C(=O)N[C@@H](CCCNC(=N)N)C(=O)O [FR] (H-FKRIVQRIKRFLR-OH)	8.00 ± 0.00 µM (≈ 14.1 µg/mL)	7.11 ± 1.66 µM (≈ 12.5 µg/mL)	2.44 ± 0.83 µM (≈ 4.29 µg/mL)	8.00 ± 0.00 µM (≈ 14.1 µg/mL)	8.00 ± 0.00 µM (≈ 14.1 µg/mL)	16.00 ± 0.00 µM (≈ 28.2 µg/mL)	16.00 ± 0.00 µM (≈ 28.2 µg/mL)	8.00 ± 0.00 µM (≈ 14.1 µg/mL)	3.78 ± 0.63 µM (≈ 6.65 µg/mL)	4.00 ± 0.00 µM (≈ 7.04 µg/mL)	–	–	MIC under physiological salt concentration, CaCl2 (E. coli ATCC 25922 [4]): > 32 µM; MIC under physiological salt concentration, FeCl3 (E. coli ATCC 25922 [4]): 16 µM; MIC under physiological salt concentration, GM (E. coli ATCC 25922 [4]): 19.50 µM; MIC under physiological salt concentration, KCl (E. coli ATCC 25922 [4]): 8 µM; MIC under physiological salt concentration, MgCl2 (E. coli ATCC 25922 [4]): 32 µM; MIC under physiological salt concentration, NH4Cl (E. coli ATCC 25922 [4]): 8 µM; MIC under physiological salt concentration, NaCl (E. coli ATCC 25922 [4]): > 32 µM; MIC under physiological salt concentration, ZnCl2 (E. coli ATCC 25922 [4]): 8 µM; MIC, Control (E. coli ATCC 25922 [5]): 8 µM (≈ 14.1 µg/mL)
CC[C@H](C)[C@H](NC(=O)[C@H](CCCNC(=N)N)NC(=O)[C@H](CCC(N)=O)NC(=O)[C@@H](NC(=O)[C@@H](NC(=O)[C@H](CCCNC(=N)N)NC(=O)[C@H](CCCCN)NC(=O)[C@H](Cc1ccccc1)NC(=O)[C@H](C)NC(=O)[C@H](CCCCN)NC(=O)[C@H](C)NC(=O)[C@H](C)NC(=O)[C@H](C)NC(=O)[C@H](CCC(=O)O)NC(=O)[C@H](C)NC(=O)[C@H](CCCNC(=N)N)NC(=O)[C@H](CC(C)C)NC(=O)[C@H](Cc1ccccc1)NC(=O)[C@H](CCCNC(=N)N)NC(=O)[C@H](CCCCN)NC(=O)[C@@H](NC(=O)[C@H](CCCNC(=N)N)NC(=O)[C@H](CCC(N)=O)NC(=O)[C@@H](NC(=O)[C@@H](NC(=O)[C@H](CCCNC(=N)N)NC(=O)[C@H](CCCCN)NC(=O)[C@@H](N)Cc1ccccc1)[C@@H](C)CC)C(C)C)[C@@H](C)CC)[C@@H](C)CC)C(C)C)C(=O)N[C@@H](CCCCN)C(=O)N[C@@H](CCCNC(=N)N)C(=O)N[C@@H](Cc1ccccc1)C(=O)N[C@@H](CC(C)C)C(=O)N[C@@H](CCCNC(=N)N)C(=O)O [LA] (H-FKRIVQRIKRFLRAEAAAKAFKRIVQRIKRFLR-OH)	2.44 ± 0.83 µM (≈ 10 µg/mL)	2.22 ± 0.63 µM (≈ 9.14 µg/mL)	1.11 ± 0.31 µM (≈ 4.57 µg/mL)	4.44 ± 1.25 µM (≈ 18.3 µg/mL)	1.11 ± 0.31 µM (≈ 4.57 µg/mL)	4.44 ± 1.25 µM (≈ 18.3 µg/mL)	> 32 µM	> 32 µM	> 32 µM	> 32 µM	32 µM	8.00 µM	–
CC[C@H](C)[C@H](NC(=O)[C@H](CCCNC(=N)N)NC(=O)[C@H](CCC(N)=O)NC(=O)[C@@H](NC(=O)[C@@H](NC(=O)[C@H](CCCNC(=N)N)NC(=O)[C@H](CCCCN)NC(=O)[C@H](Cc1ccccc1)NC(=O)[C@H](CO)NC(=O)CNC(=O)CNC(=O)CNC(=O)CNC(=O)[C@H](CCCNC(=N)N)NC(=O)[C@H](CC(C)C)NC(=O)[C@H](Cc1ccccc1)NC(=O)[C@H](CCCNC(=N)N)NC(=O)[C@H](CCCCN)NC(=O)[C@@H](NC(=O)[C@H](CCCNC(=N)N)NC(=O)[C@H](CCC(N)=O)NC(=O)[C@@H](NC(=O)[C@@H](NC(=O)[C@H](CCCNC(=N)N)NC(=O)[C@H](CCCCN)NC(=O)[C@@H](N)Cc1ccccc1)[C@@H](C)CC)C(C)C)[C@@H](C)CC)[C@@H](C)CC)C(C)C)C(=O)N[C@@H](CCCCN)C(=O)N[C@@H](CCCNC(=N)N)C(=O)N[C@@H](Cc1ccccc1)C(=O)N[C@@H](CC(C)C)C(=O)N[C@@H](CCCNC(=N)N)C(=O)O [LG] (H-FKRIVQRIKRFLRGGGGSFKRIVQRIKRFLR-OH)	–	–	1.22 ± 0.41 µM (≈ 4.66 µg/mL)	–	–	–	–	–	–	–	64 µM	2.00 µM	MIC (E. coli UB 1005; Table 3, recombinant vs synthetic LG, mean ± SD of three independent experiments): 1.33 ± 0.25 µM
